Legend:
IFN-γ = assay: Cytokine assay, IFN-γ release from PBMC; type: cell-based; conditions: human PBMC, 20 ug/mL PHA, supernatant at 24 hours
Procedure, shortened: (§1)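 First, frozen human PBMC are thawed, pelleted and taken up in RPMI 1640 containing 10% FBS. Next, compound serially diluted from a 10 mM DMSO stock is added at 10, 1, 0.1 or 0.01 μM (n=3). Finally, released cytokine is quantified.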

IL-2 = assay: Cytokine assay, IL-2 release from PBMC; type: cell-based; conditions: human PBMC, 20 ug/mL PHA; for IC50: supernatant at 24 hours
Procedure, shortened: as §1

[1] = system: T1, PDE4 partially purified from human U-937 myeloid leukemia cells; assay: PDE4 Assay (enzyme from U-937 cells, [3H]cAMP); type: biochemical; conditions: PDE4 from U-937 cells, Tris buffer pH 7.5, 20 minutes at 25° C.
T1 construct: PDE4 partially purified from human U-937 myeloid leukemia cells was used

BALB/c male mice = assay: Oxazolone Induced Mouse Ear Edema Model; type: in vivo; conditions: for inhibition in vivo at 0.2 mg: 0.2 mg/ear × 2 topical; for inhibition in vivo at 1 mg: 1 mg/ear × 2 topical; for inhibition in vivo at 0.02 mg: 0.02 mg/ear × 2 topical
Description: 2. In Vivo Anti-Inflammation Activity in Oxazolone Induced Mouse Ear Edema Model
Groups of 5 BALB/c male mice weighing 23±2 g were used. The preshaved abdomens of test animals were sensitized by application of 100 μl, of 1.5% oxazolone solution dissolved in acetone. Seven days after the initial sensitization, test substances, as well as vehicle (acetone:ethanol/1:1, 20 μL/ear) were each administered topically to the anterior and posterior surfaces of the right ear 30 minutes before, and 15 minutes after, challenge by a second application of oxazolone (1% in acetone, […]) via topical route. As a positive control, indomethacin (0.3 mg/ear×2) was administered topically using the same treatment regime as for the test compounds. Twenty-four hours after the second application of oxazolone, the ear thickness of each mouse was measured with a Dyer model micrometer gauge. A 30 percent or more inhibition in ear swelling relative to the vehicle control was considered significant and indicated possible anti-inflammatory activity.

[2] = system: CD-1 (Crl.) derived male mice; assay: Phorbol Ester Induced Mouse Ear Edema Model; type: in vivo; conditions: topical, 6 h; for inhibition in vivo at 0.2 mg: 0.2 mg/ear × 2 topical; for inhibition in vivo at 1 mg: 1 mg/ear × 2 topical; for inhibition in vivo at 0.02 mg: 0.02 mg/ear × 2 topical; for inhibition in vivo at 0.067 mg: 0.067 mg/ear × 2 topical; for inhibition in vivo at 3 mg: 3 mg/ear × 2 topical; for inhibition in vivo at 0.05 mg: 0.05 mg/ear × 2 topical; for inhibition in vivo at 0.1 mg: 0.1 mg/ear × 2 topical
Description: 1. In Vivo Anti-Inflammation Activity in Phorbol Ester Induced Mouse Ear Edema Model
[…] Dexamethasone (1 mg/ear×2) used as the positive control was administered topically to test animals using the same application schedule. Ear swelling was then measured by a Dyer model micrometer gauge at 6 hours after PMA application as an index of inflammation. Percent inhibition was calculated according to the formula: [(Ic−It)/Ic]×100%, where Ic and It refer to increase of ear thickness (mm) in control and treated mice, respectively.

TNF-α = assay: Cytokine assay, TNF-α release from PBMC; type: cell-based; conditions: 1 μg/mL LPS; for IC50: Homo sapiens, PBMC, 24 h, supernatant at 24 hours
Procedure, shortened: as §1

IL-5 = assay: Cytokine assay, IL-5 release from PBMC; type: cell-based; conditions: human PBMC, 20 ug/mL PHA; for IC50: supernatant at 48 hours
Procedure, shortened: as §1

IL-10 = assay: Cytokine assay, IL-10 release from PBMC; type: cell-based; conditions: human PBMC, 20 ug/mL PHA; for IC50: supernatant at 48 hours
Procedure, shortened: as §1

[3] = Acetone:Ethanol/1:1, ear thickness 24 hours after second oxazolone application
[4] = Acetone:Ethanol/1:1, ear swelling 6 hours after PMA
[5] = 95% Ethanol, ear swelling 6 hours after PMA

| SMILES | IC50 (IFN-γ) | IC50 (IL-2) | IC50 [1] | inhibition in vivo at 1 mg (BALB/c male mice; [3]) | inhibition in vivo at 0.2 mg [2, 4] | inhibition in vivo at 1 mg [2, 4] | IC50 (TNF-α) | IC50 (IL-5) | IC50 (IL-10) | also measured |
| --- | --- | --- | --- | --- | --- | --- | --- | --- | --- | --- |
| CCOC(=O)c1cnc(Oc2ccc3c(c2)COB3O)c(Cl)c1 [D48, Ethyl 5-chloro-6-(1-hydroxy-1,3-dihydrobenzo[c][1,2]oxaborol-5-yloxy)nicotinate] | < 1000 nM | < 1000 nM | < 1000 nM | 20 to 30% | < 30% | < 30% | < 1000 nM |  |  | inhibition in vivo at 0.2 mg (BALB/c male mice; [3]): < 20% |
| COC(=O)c1cc(Oc2ccc3c(c2)COB3O)ccc1C(N)=O [D7, 5-(4-Carbamoyl-3-methoxycarbonylphenoxy)-1,3-dihydro-1-hydroxy-2,1-benzoxaborole] | < 1000 nM | < 1000 nM | < 1000 nM |  |  |  | < 1000 nM | < 1000 nM | < 1000 nM | inhibition in vivo at 1 mg/kg (BALB/c male mice; 1 mg/kg × 2 topical, Acetone:Ethanol/1:1, ear thickness 24 hours after second oxazolone application): < 20%; inhibition in vivo at 1 mg/kg ([2]; 1 mg/kg × 2 topical, Acetone:Ethanol/1:1, ear swelling 6 hours after PMA): < 30% |
| COc1nc(Oc2cc3c(cc2F)B(O)OC3)ccc1C#N [D122, 6-(6-Fluoro-1-hydroxy-1,3-dihydrobenzo[c][1,2]oxaborol-5-yloxy)-2-methoxynicotinonitrile] | < 1000 nM | < 1000 nM | < 1000 nM | < 20% |  |  | < 1000 nM | < 1000 nM | < 1000 nM |  |
| N#Cc1ccc(Oc2ccc3c(c2)COB3O)nc1OCCO [D99, 6-(1-Hydroxy-1,3-dihydro-benzo[c][1,2]oxaborol-5-yloxy)-2-(2-hydroxy-ethoxy)-nicotinonitrile] | < 1000 nM | < 1000 nM | < 1000 nM | < 20% |  |  | < 1000 nM | < 1000 nM | < 1000 nM | inhibition in vivo at 0.02 mg (BALB/c male mice; 95% Ethanol, ear thickness 24 hours after second oxazolone application): < 20%; inhibition in vivo at 0.02 mg [2, 5]: < 30%; inhibition in vivo at 0.067 mg [2, 5]: < 30%; inhibition in vivo at 0.2 mg [2, 5]: < 30%; inhibition in vivo at 3 mg [2, 5]: 60 to 90% |
| CCOc1cc(Oc2ccc3c(c2)COB3O)ccc1C#N [D124, 2-Ethoxy-4-(1-hydroxy-1,3-dihydrobenzo[c][1,2]oxaborol-5-yloxy)benzonitrile] | < 1000 nM | < 1000 nM | < 1000 nM | < 20% |  |  | < 1000 nM | < 1000 nM | < 1000 nM | inhibition in vivo at 1 mg [2, 5]: < 30% |
| COc1nc(Oc2ccc3c(c2)COB3O)ccc1C#N [D46, 6-(1-hydroxy-1,3-dihydrobenzo[c][1,2]oxaborol-5-yloxy)-2-methoxynicotinonitrile] | < 1000 nM | < 1000 nM | < 1000 nM | < 20% | < 30% | 60 to 90% | < 1000 nM | < 1000 nM | < 1000 nM | inhibition in vivo at 0.05 mg [2, 5]: < 30%; inhibition in vivo at 0.1 mg [2, 4]: < 30%; inhibition in vivo at 0.17 mg ([2]; 0.17 mg/ear × 2 topical, 95% Ethanol, ear swelling 6 hours after PMA): < 30%; inhibition in vivo at 0.5 mg ([2]; 0.5 mg/ear × 2 topical, 95% Ethanol, ear swelling 6 hours after PMA): < 30%; inhibition in vivo at 3 mg [2, 5]: 60 to 90% |
| N#Cc1ccc(Oc2ccc3c(c2)COB3O)c(Cl)c1 [D4, 5-(2-Chloro-4-cyanophenoxy)-1,3-dihydro-1-hydroxy-2,1-benzoxaborole] | < 1000 nM | < 1000 nM | < 1000 nM | 30 to 40% |  |  | < 1000 nM | < 1000 nM | > 10000 nM | inhibition in vivo at 0.02 mg (BALB/c male mice; [3]): < 20% |
| COCCN(C)c1nc(Oc2ccc3c(c2)COB3O)ccc1C#N [D96, 6-(1-hydroxy-1,3-dihydro-benzo[c][1,2]oxaborol-5-yloxy)-2-[(2-methoxy-ethyl)-methyl-amino]-nicotinonitrile] | < 1000 nM | < 1000 nM | < 1000 nM | < 20% |  |  | < 1000 nM | 1000 to 4000 nM | 1000 to 4000 nM |  |
| CCOC(=O)COc1cc(C#N)ccc1Oc1ccc2c(c1)COB2O [D16, 5-[4-Cyano-2-(ethoxycarbonylmethoxy)phenoxy]-1,3-dihydro-1-hydroxy-2,1-benzoxaborole] | < 1000 nM | 1000 to 4000 nM | < 1000 nM |  | 60 to 90% | 90 to 100% | < 1000 nM |  |  | inhibition in vivo at 3 mg (BALB/c male mice; 3 mg/ear × 2 topical, 95% Ethanol, ear thickness 24 hours after second oxazolone application): < 20% |
| COC(=O)c1cc(Oc2ccc3c(c2)COB3O)ccc1C#N [D6, 5-(4-Cyano-3-methoxycarbonylphenoxy)-1,3-dihydro-1-hydroxy-2,1-benzoxaborole] | < 1000 nM | < 1000 nM | < 1000 nM | < 20% | < 30% | 30 to 60% | < 1000 nM | 4000 to 10000 nM | 4000 to 10000 nM | inhibition in vivo at 0.2 mg (BALB/c male mice; [3]): < 20% |
| O=C(O)c1ccc(Oc2ccc3c(c2)COB3O)nc1 [D61, 6-(1-Hydroxy-1,3-dihydrobenzo[c][1,2]oxaborol-5-yloxy)nicotinic acid] |  |  |  | < 20% | < 30% | 30 to 60% |  |  |  | inhibition at 10 µM (IL-5; 48 hours, 10 μM): 30 to 60%; inhibition at 10 µM (IL-2; 24 hours, 10 μM): < 30%; inhibition at 10 µM (IL-10; 48 hours, 10 μM): < 30%; inhibition in vivo at 0.1 mg (BALB/c male mice; 0.1 mg/ear × 2 topical, Acetone:Ethanol/1:1, ear thickness 24 hours after second oxazolone application): < 20%; inhibition in vivo at 0.2 mg (BALB/c male mice; [3]): < 20%; inhibition in vivo at 0.1 mg [2, 4]: < 30%; inhibition at 10 µM (TNF-α; human PBMC, 24 hours, 10 μM): < 30% |
| CCOc1nc(Oc2ccc3c(c2)COB3O)ccc1C#N [D107, 2-Ethoxy-6-(1-hydroxy-1,3-dihydro-benzo[c][1,2]oxaborol-5-yloxy)-nicotinonitrile] | < 1000 nM | < 1000 nM | < 1000 nM |  |  |  | < 1000 nM | < 1000 nM | < 1000 nM | inhibition in vivo at 2.4 mg (BALB/c male mice; 2.4 mg/ear × 2 topical, 95% Ethanol, ear thickness 24 hours after second oxazolone application): < 20%; inhibition in vivo at 0.02 mg [2, 5]: < 30%; inhibition in vivo at 0.06 mg ([2]; 0.06 mg/ear × 2 topical, 95% Ethanol, ear swelling 6 hours after PMA): < 30%; inhibition in vivo at 0.067 mg [2, 5]: 30 to 60%; inhibition in vivo at 0.2 mg [2, 5]: 60 to 90%; inhibition in vivo at 0.24 mg ([2]; 0.24 mg/ear × 2 topical, 95% Ethanol, ear swelling 6 hours after PMA): 30 to 60%; inhibition in vivo at 0.8 mg ([2]; 0.8 mg/ear × 2 topical, 95% Ethanol, ear swelling 6 hours after PMA): 60 to 90%; inhibition in vivo at 2.4 mg ([2]; 2.4 mg/ear × 2 topical, 95% Ethanol, ear swelling 6 hours after PMA): 60 to 90% |
| COCCNc1nc(Oc2ccc3c(c2)COB3O)ccc1C#N [D111, 6-(1-Hydroxy-1,3-dihydro-benzo[c][1,2]oxaborol-5-yloxy)-2-(2-methoxy-ethylamino)-nicotinonitrile] |  |  |  |  |  |  | < 1000 nM |  |  | inhibition in vivo at 0.15 mg (BALB/c male mice; 0.15 mg/ear × 2 topical, 95% Ethanol, ear thickness 24 hours after second oxazolone application): < 20%; inhibition in vivo at 0.015 mg ([2]; 0.015 mg/ear × 2 topical, 95% Ethanol, ear swelling 6 hours after PMA): < 30%; inhibition in vivo at 0.05 mg [2, 5]: < 30%; inhibition in vivo at 0.15 mg ([2]; 0.15 mg/ear × 2 topical, 95% Ethanol, ear swelling 6 hours after PMA): < 30%; inhibition in vivo at 1 mg [2, 5]: < 30% |
| COc1cc(C#N)ccc1Oc1ccc2c(c1)COB2O [D15, 5-(4-Cyano-2-methoxyphenoxy)-1,3-dihydro-1-hydroxy-2,1-benzoxaborole] | < 1000 nM | < 1000 nM | < 1000 nM | 40 to 60% |  | 30 to 60% | < 1000 nM |  |  |  |

Source: patent publication US9012431B2, “Boron-containing small molecules as anti-inflammatory agents” (Anacor Pharmaceuticals, Inc., priority 2008, dated 2015)
